Experimental data published in patent US7115655B2, “Pyranocoumarin derivatives” (Elcom Biotechnology, Co. Ltd., priority 2002, dated 2006).
Like-named read-outs stand apart in the source and are kept apart here.

Key:
[1] = system: mice with scopolamine-induced amnesia; test: Passive avoidance test in mice with scopolamine-induced amnesia; type: in vivo, Male ICR mice; conditions: for cognition-enhancing activity in passive avoidance test, in words: mice with scopolamine-induced amnesia
Source text: Male ICR mice weighing 25 to 30 g that had been bred with sufficient water and feed in the Experimental Animal Breeding Center of Seoul National University were supplied and adapted to the laboratory environment for 1 week to be used in this experiment.
An avoidance box (40×20×20 cm) equipped with 3 mm stainless steel rod spaced 0.5 cm apart at the bottom was divided into a light compartment and a dark compartment, and when mice placed in the light compartment entered the dark compartment, an electrical shock (0.1 mA/10 g body weight) was delivered through the stainless steel rods. The above procedure was repeated after 24 hours, and the time for which the mice stayed at the light compartment was measured and used as an index of memorizing the training of the previous day. Passive avoidance test was performed according to the method of Christensen et al. (Cholinergic ‘Blockade’ as a model of the cognitive deficits in Alzheimer's disease, Brain 115: 1681–1699, 1992). Specifically, scopolamine was dissolved in physiological saline to 1.5 mg/kg solution, and the solution was subcutaneously injected to mice 30 minutes before the training to induce amnesia. The Angelica gigas extract was intraperitoneally injected to the mice 1 hour before the scopolamine administration, and observed for its effect on the scopolamine-induced amnesia.
Passive avoidance test was performed according to the method of the above Experiment 1(2) to measure effects of pyranocoumarin derivatives of the present invention. Velnacrine (AChE inhibitor) was used as a positive control.

[2] = molecular target: T1, AChE (Electric eel Type V-S, Sigma) (Electrophorus electricus, UniProt O42275); test: biochemical; type: biochemical
T1 construct: purchased Sigma Type V-S
Experimental: AChE inhibitory activity of the methanolic extract and CH2Cl2 fraction of Angelica gigas of the above Example 1 was measured by the method of Ellman et al. (Ellman, et al. (1961) A new and rapid colorimetric determination of acetylcholinesterase activity, Biochem. Pharmacol. 7: 88–95).
(§1) To a test tube containing a chromogen (5,5-dithiobis-2-nitrobenzoic acid) and a sample was added AChE homogenated with phosphate buffered saline (Electric eel Type V-S, Sigma), and a reaction was performed at 37° C. for 5 minutes, and thereto was added a substrate for the enzyme, […], and a reaction was further performed at 37° C. for 3 minutes. Neostigmine bromide was added thereto to terminate the reaction, and then, the absorbance was measured at 412 nm to obtain AChE inhibition (%). The above procedure was repeated with no AChE as a blank, or with no sample as a control.
AChE inhibitory activity of decursin of the above Example 2 and Compound 3 of the above Example 3 was measured according to the method in Experiment 1.
as §1, with “minutes. The above procedure was repeated with no AChE as a blank or with no sample as a control.” for “minutes.”, “obtain IC50 of” for “obtain”, “inhibition.” for “inhibition (%). The above procedure was repeated with no AChE as a blank, or with no sample as a control.”

[3] = Table 4, 1 mg/kg + scopolamine 1.5 mg/kg, Mean ± S.D.
[4] = Table 4, 5 mg/kg + scopolamine 1.5 mg/kg, Mean ± S.D.
[5] = read-out: IC50 of AChE inhibition

T1 sequence (O42275 24-633): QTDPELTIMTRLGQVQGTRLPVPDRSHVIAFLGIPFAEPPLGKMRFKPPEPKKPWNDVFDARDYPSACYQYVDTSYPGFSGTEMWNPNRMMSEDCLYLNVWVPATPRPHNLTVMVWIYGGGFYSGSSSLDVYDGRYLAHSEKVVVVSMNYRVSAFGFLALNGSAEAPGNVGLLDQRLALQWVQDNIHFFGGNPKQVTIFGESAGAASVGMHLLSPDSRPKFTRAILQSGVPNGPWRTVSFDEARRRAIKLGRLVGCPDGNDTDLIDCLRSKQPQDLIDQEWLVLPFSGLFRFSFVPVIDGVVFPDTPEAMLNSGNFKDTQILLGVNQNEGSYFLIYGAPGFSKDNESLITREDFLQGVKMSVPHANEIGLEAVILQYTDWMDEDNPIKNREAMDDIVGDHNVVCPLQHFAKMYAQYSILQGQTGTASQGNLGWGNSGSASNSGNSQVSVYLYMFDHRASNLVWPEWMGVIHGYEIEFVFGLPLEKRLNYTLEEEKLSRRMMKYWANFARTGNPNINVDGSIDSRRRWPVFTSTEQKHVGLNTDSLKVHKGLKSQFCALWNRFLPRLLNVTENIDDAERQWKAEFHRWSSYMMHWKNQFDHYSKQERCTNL

Compound | Step-through latency [1, 3] [s] | Step-through latency [1, 4] [s] | cognition-enhancing activity in passive avoidance test, in words [1] | AChE inhibitory activity, comparison in words [2] | IC50 [2, 5] [µM] | further results
CC(C)=CC(=O)O[C@H]1Cc2cc3ccc(=O)oc3cc2OC1(C)C [Compound 1, decursin] | 108.6 ± 15.0 | 96.5 ± 18.2 | excellent cognition-enhancing activity | better AChE inhibitory activity than decursinol | – | Step-through latency ([1]; Table 4, 0.5 mg/kg + scopolamine 1.5 mg/kg, Mean ± S.D.): 32.1 ± 13.4 s; IC50 [2]: 480 µM
CC1(C)Oc2cc3oc(=O)ccc3cc2C[C@@H]1O [Compound 2, decursinol, reference compound] | 52.1 ± 8.8 | 54.4 ± 10.6 | did not show such activity | – | 28 | Step-through latency ([1]; Table 4, 10 mg/kg + scopolamine 1.5 mg/kg, Mean ± S.D.): 43.2 ± 7.7 s
COc1ccc(/C=C/C(=O)OC2Cc3cc4ccc(=O)oc4cc3OC2(C)C)cc1 (stereo not drawn) [Compound 3] | – | – | excellent cognition-enhancing activity | better AChE inhibitory activity than decursinol | 51 | Step-through latency ([1]; Table 5, 1 mg/kg + scopolamine 1.5 mg/kg, Mean ± S.D.): 42.0 ± 17.9 s; Step-through latency ([1]; Table 5, 2 mg/kg + scopolamine 1.5 mg/kg, Mean ± S.D.): 86.0 ± 18.2 s; Step-through latency ([1]; Table 5, 5 mg/kg + scopolamine 1.5 mg/kg, Mean ± S.D.): 171.2 ± 18.7 s
CN1[C@@H]2C[C@@H](OC(=O)[C@H](CO)c3ccccc3)C[C@H]1[C@@H]1O[C@@H]12 [Scopolamine, scopolamine, reference compound] | – | – | – | – | – | Step-through latency ([1]; Table 2, scopolamine alone 1.5 mg/kg s.c. (amnesia induction), saline 158.8 ± 27.6): 29.7 ± 3.1 s; Step-through latency ([1]; Table 4, scopolamine alone 1.5 mg/kg s.c. (amnesia induction), saline 172.0 ± 16.0): 29.7 ± 2.8 s; Step-through latency ([1]; Table 5, scopolamine alone 1.5 mg/kg s.c. (amnesia induction), saline 179.7 ± 0.6): 28.4 ± 10.1 s
Nc1c2c(nc3ccccc13)CCCC2O (stereo not drawn) [velnacrine, Velnacrine, reference compound] | 73.4 ± 6.4 | – | – | – | – | –
